According to patent publication US20080139664A1, “ANTI-GLYCATION AGENTS FOR PREVENTING AGE-, DIABETES-, AND SMOKING-RELATED COMPLICATIONS” (NATIONAL RESEARCH COUNCIL OF CANADA, priority 2001, published 2008):

Assays:
lysozyme = assay: ESI-MS of lysozyme glycoforms after incubation with D-ribose; conditions: 37° C., 5 days; for Peak area as % of total area of all glycoforms, 14,569: lysozyme + 2D-ribose − 2H2O (14,569 Da); for Peak area as % of total area of all glycoforms, 14,551: lysozyme + 2D-ribose − 3H2O (14,551 Da); for Peak area as % of total area of all glycoforms, 14,533: lysozyme + 2D-ribose − 5H2O (14,533 Da); for Peak area as % of total area of all glycoforms, 14,515: lysozyme + 2D-ribose − 6H2O (14,515 Da); for Peak area as % of total area of all glycoforms, 14,419: lysozyme + D-ribose − 2H2O (14,419 Da); for Peak area as % of total area of all glycoforms, 14,401: lysozyme + D-ribose − 3H2O (14,401 Da); for Peak area as % of total area of all glycoforms, 14,437: lysozyme + D-ribose − H2O (14,437 Da); for Peak area as % of total area of all glycoforms, 14,496: lysozyme + D-ribose − H2O with one carboxymethylated Lys residue (14,496 Da); for Peak area as % of total area of all glycoforms, 14,364: lysozyme with one carboxymethylated Lys residue (14,364 Da); for Peak area as % of total area of all glycoforms, 14,305: unmodified lysozyme (14,305 Da);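 as to all read-outs here: lysozyme incubated with D-ribose, with or without anti-glycation agents, then separated by reversed-phase HPLC and analysed by electrospray mass spectrometry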
[1] = test system: bovine serum albumin (BSA); assay: Fluorescamine assay of free primary amino groups of BSA incubated with D-ribose; assay type: biochemical; conditions: for Unreacted amino group: free primary amino group on BSA after 5 days at 37° C., agent at 16.8 times IC50, 64% without agent
Description: Fluorescamine assay (Yeboah F. et al., J. Agric. Food Chem. 48, 2766-2774 (2000)) was performed on incubated mixtures of BSA and D-ribose, with or without the identified anti-glycation agents. The mixtures contained BSA (0.075 mM protein concentration or 4.53 mM of Lys residue concentration) and D-ribose (50 mM). […] The fluorescamine assay determines the number of free lysine residues of BSA. In this experiment, the final volume of the incubation mixtures was 10 mL and the incubation time was 5 days at 37° C. Prior to the fluorescamine assay, the proteins were isolated by reverse phase HPLC. The protein content was determined using the Bio-Rad protein determination reagent (Bradford method). The fluorescamine assay was done in triplicate.

[2] = test system: bovine serum albumin (BSA); assay: SDS-PAGE assessment of BSA-BSA protein cross-links; assay type: biochemical; conditions: mixtures further incubated for 4 weeks; also: key: ++: strongly suppressed; +: suppressed; −: no suppression; *: moderate acceleration of the cross-linking
Description: Additionally, protein cross-links were semi-quantitatively assessed by SDS PAGE gel chromatography.
Protein-protein cross-links were characterized by SDS-PAGE. The incubation mixtures used for determination of the amino groups were further incubated for 4 weeks. An aliquot of the solution was applied to Pharmacia SDS FAST gel and the proteins were stained with Coomassie blue.

[3] = test system: bovine serum albumin (BSA); assay: Maillard fluorescence-based assay of AGEs formation, IC50 determination (BSA + D-ribose); conditions: inhibition of Maillard fluorescence development; 0.075 mM BSA, 50 mM D-ribose, 37° C., 5 days
Description: During the glycation reaction between proteins and reducing sugars, a specific fluorescence with excitation and emission wavelength of 370 nm and 440 nm, respectively, is observed. […] The assay was based on the progressive development of the characteristic Maillard fluorescence (370 nm Ex and 440 nm Em) during the progress of the glycation reaction.
The final assay volume was 200 μl and each assay well contained 0.075 mM BSA, and 50 mM D-ribose. Compounds were assayed at 3 different concentration levels (0.003, 0.03, and 0.3 mg/mL) to determine the effect of concentration on inhibition. Samples were incubated for 5 days.
The Maillard fluorescence was directly measured from the reaction solution, except for the anti-glycants that quenched the Maillard fluorescence, which were analyzed by the earlier-described HPLC method.
Solutions were incubated in microtitre plates (96 wells) at 37° C. for 5 days in a closed system.
After one hour incubation at 37° C., fluorescence readings were taken.
The IC50 values of the compounds that quenched the fluorescence of the glycated BSA were analyzed by on-line monitoring of the fluorescence of the glycated BSA separated from the fluorescence quenching assay compound by RP-HPLC. The elution profile was monitored by UV-diode array and by fluorescence (λex=370 nm, λem=440 nm). […] The incubation conditions were the same as above.

Compound | Peak area as % of total area of all glycoforms, 14,569 (lysozyme) [%] | Peak area as % of total area of all glycoforms, 14,551 (lysozyme) [%] | Peak area as % of total area of all glycoforms, 14,533 (lysozyme) [%] | Peak area as % of total area of all glycoforms, 14,515 (lysozyme) [%] | Peak area as % of total area of all glycoforms, 14,419 (lysozyme) [%] | Peak area as % of total area of all glycoforms, 14,401 (lysozyme) [%] | Peak area as % of total area of all glycoforms, 14,437 (lysozyme) [%] | Peak area as % of total area of all glycoforms, 14,496 (lysozyme) [%] | Peak area as % of total area of all glycoforms, 14,364 (lysozyme) [%] | Peak area as % of total area of all glycoforms, 14,305 (lysozyme) [%] | Unreacted amino group [1] [%] | effect on protection of amino groups of BSA ([1]; in words) | Suppression of BSA-BSA cross-links [2] | IC50 [3] [µM]
CC(C)NC[C@H](O)c1ccc(O)c(O)c1 [L-Isoproterenol] | 2.2 | 0.8 | 1.0 | 0.9 | 2.3 | 2.5 | 16.5 | 1.4 | 5.3 | 67.0 | 73 | protect the amino group against glycation | + | 
NC[C@@H](O)c1ccc(O)c(O)c1 [L-Norepinephrine] | 1.2 | 0.0 | 0.0 | 0.0 | 2.4 | 2.3 | 12.0 | 0.9 | 5.3 | 75.9 | 70 |  | + | 
O=c1c(O)cccc2cc(O)c(O)c(O)c12 [Purpurogallin] | 3.6 | 1.2 | 0.9 | 0.0 | 4.1 | 0.0 | 22.2 | 0.0 | 0.0 | 67.9 | 31 |  |  | 76
Kaempferide | 3.9 | 4.4 | 4.0 | 1.6 | 8.9 | 5.4 | 18.5 | 0.0 | 2.5 | 46.7 | 49 |  |  | 280
O=c1cc(-c2ccc(O)c(O)c2)oc2c(O)c(O)ccc12 [7,8,3′,4′-Tetrahydroxyflavone] | 1.6 | 0.6 | 0.0 | 0.0 | 3.0 | 0.0 | 15.9 | 0.8 | 2.0 | 76.2 | 56 |  |  | 150
O=[N+]([O-])c1ccc(O)c2ncccc12 [Nitroxoline] | 1.4 | 2.1 | 1.2 | 1.2 | 7.8 | 3.3 | 11.0 | 1.0 | 4.2 | 66.7 | 76 |  |  | 300
CC(C)NC[C@@H](O)c1ccc(O)c(O)c1 [D-Isoproterenol] | 1.4 | 0.2 | 0.5 | 0.0 | 1.8 | 0.8 | 13.7 | 0.6 | 4.7 | 76.2 | 68 |  | + | 
Oc1cc(O)c2c(c1)O[C@H](c1ccc(O)c(O)c1)[C@H](O)C2 [(−)-Epicatechin] | 1.7 | 0.0 | 0.0 | 0.0 | 2.6 | 0.0 | 17.6 | 0.0 | 1.8 | 76.3 | 57 |  |  | 58
Cc1cc(N)c2ccccc2c1O [Vitamin K5] | 1.6 | 1.3 | 1.6 | 0.0 | 3.3 | 0.0 | 12.2 | 0.0 | 4.9 | 75.1 | 51 |  |  | 90
O=c1cc(-c2cc(O)c(O)c(O)c2)oc2cc(O)cc(O)c12 [5,7,3′,4′,5′-Pentahydroxyflavone] | 4.3 | 4.3 | 1.7 | 0.7 | 8.6 | 0.2 | 20.6 | 0.0 | 2.2 | 55.0 | 54 |  |  | 210
